Assay results as given in patent US20050209157A1, “Short bioactive peptides and methods for their use” (priority 2001, published 2005).
Converted amounts (≈) assume the structure as drawn. Where two headings read alike, the source gives them in different places. No end group written: not given here.

Columns and labels:
S. aureus (MRSA) = type: cell-based, Staphylococcus aureus; conditions: mean of three; 16 to 20 hours at 35° C.
in vitro [1] = type: cell-based, human; conditions: human, human red blood cells, pH 7, hemolytic assay, concentration at 50% hemolysis, 1 hour at 37° C.; read-out: LD50
S. epidermidis C621 = type: cell-based, Staphylococcus epidermidis; conditions: mean of three; 16 to 20 hours at 35° C.
in vitro [2] = conditions: human, WI38 normal lung fibroblast cells, LD50 WI38, WI38 normal lung fibroblast line, MTT, 24 hours with peptide
P. aeruginosa H374 [3] = type: cell-based, Pseudomonas aeruginosa; conditions: mean of three; 16 to 20 hours at 35° C.
WI38 = conditions: MTT, 24 hours with peptide; normal fibroblast line
SW480 = assay: Anti-cancer assay, MTT, LD50; type: cell-based; conditions: SW480 colon adenocarcinoma line, 24 hours with peptide
Text: (§1) Numbers are LD50 values (μg/mL).

BMKC = assay: Anti-cancer assay, MTT, LD50; type: cell-based; conditions: BMKC cloned melanoma line, 24 hours with peptide
Text: as §1

MCF7 = assay: Anti-cancer assay, MTT, LD50; type: cell-based; conditions: MCF7 breast adenocarcinoma line, MTT, 24 hours with peptide
Text: as §1

PC3 = assay: Anti-cancer assay, MTT, LD50; type: cell-based; conditions: 24 hours with peptide, prostate adenocarcinoma
Text: as §1

HeLaS3 = assay: Anti-cancer assay, MTT, LD50; type: cell-based; conditions: 24 hours with peptide, cervical carcinoma
Text: as §1

H1299 = assay: Anti-cancer assay, MTT, LD50; type: cell-based; conditions: 24 hours with peptide, lung large cell carcinoma
Text: as §1

S. typhimurium 14028S = type: cell-based, Salmonella typhimurium; conditions: mean of three; 16 to 20 hours at 35° C.; in µg/mL
S. pneumoniae C719 = assay: Antimicrobial assays II, NCCLS broth microdilution MIC; type: cell-based, Streptococcus pneumoniae; conditions: mean of three, in µg/mL
P. acne ATCC 6919 = assay: as above; type: cell-based, Propionibacterium acnes; conditions: mean of three, in µg/mL
S. pyogenes M76 = assay: as above; type: cell-based, Streptococcus pyogenes; conditions: mean of three; 16 to 20 hours at 35° C.
S. pneumoniae C718 = assay: as above; type: cell-based, Streptococcus pneumoniae; conditions: mean of three
E. coli UB1005 = type: cell-based, Escherichia coli; conditions: mean of three; 16 to 20 hours at 35° C.; in µg/mL
P. aeruginosa H374 [4] = type: cell-based, Pseudomonas aeruginosa; conditions: for MIC Cm-comb.: MIC of chloramphenicol with peptide at ¼ MIC; for MIC Nal-comb.: MIC of nalidixic acid with peptide at ¼ MIC; for FIC Index: 0.5 or less = synergy
Procedure, shortened: (§2)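 Efflux-mutant strains were tested with two-fold serial dilutions of chloramphenicol or nalidixic acid, alone and with peptide held at ¼ of its own MIC.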

P. aeruginosa = type: cell-based, Pseudomonas aeruginosa; conditions: P. aeruginosa H744; MIC of nalidixic acid with peptide at ¼ MIC
Procedure, shortened: as §2

P. aeruginosa H774 = type: cell-based, Pseudomonas aeruginosa; conditions: P. aeruginosa H744; nalidixic acid + peptide at ¼ MIC; 0.5 or less = synergy
Procedure, shortened: as §2

S. pyogenes ATCC19615 = assay: Antimicrobial assays II, NCCLS broth microdilution MIC; type: cell-based, Streptococcus pyogenes; conditions: mean of three, in µg/mL
[5] = test system: Pseudomonas aeruginosa ATCC 9027; assay: Antimicrobial assay I, MIC by OD measurement; type: cell-based; conditions: 37° C. for 24 hours, absorbance 620 nm
[6] = test system: Staphylococcus aureus ATCC 6538; assay: Antimicrobial assay I, MIC by OD measurement; type: cell-based; conditions: 37° C. for 24 hours, absorbance 620 nm
[7] = test system: yeast (Saccharomyces cerevisiae); assay: Antimicrobial assay I, yeast assay in RPMI 1640; type: cell-based; conditions: RPMI 1640 media
[8] = chloramphenicol + peptide at ¼ MIC
[9] = nalidixic acid + peptide at ¼ MIC, FIC=0.25+MIC comb/MIC alone

Molecule | S. aureus (MRSA) MIC (S. aureus (MRSA)) [µg/mL] | HC50 at 1 h (in vitro [1]) [µg/mL] | S. epidermidis C621 MIC (S. epidermidis C621) [µg/mL] | CC50 at 24 h (in vitro [2]) [µg/mL] | WI38 LD50 (WI38) [µg/mL] | LD50 SW480 (SW480) [µg/mL] | LD50 BMKC (BMKC) [µg/mL] | LD50 MCF7 (MCF7) [µg/mL] | PC3 LD50 (PC3) [µg/mL] | HeLaS3 LD50 (HeLaS3) [µg/mL] | H1299 LD50 (H1299) [µg/mL] | S. pneumoniae MIC (S. pneumoniae C719) | P. acne MIC (P. acne ATCC 6919) | S. pyogenes M76 MIC (S. pyogenes M76) [µg/mL] | S. pneumoniae MIC (S. pneumoniae C718) [µg/mL] | MIC Cm-comb. (P. aeruginosa H374 [4]) [µg/mL] | MIC Nal-comb. (P. aeruginosa H374 [4]) [µg/mL] | FIC Index (P. aeruginosa H374 [4]; [8]) | FIC Index (P. aeruginosa H374 [4]; [9]) | MIC Nal-comb. (P. aeruginosa) [µg/mL] | also measured
CC(C)C[C@H](NC(=O)[C@H](C)NC(=O)[C@H](CC(C)C)NC(=O)[C@H](CCCCN)NC(=O)[C@H](C)NC(=O)[C@H](CC(C)C)NC(=O)[C@H](CCCCN)NC(=O)[C@H](CCCCN)NC(=O)[C@H](C)NC(=O)[C@H](CC(C)C)NC(=O)[C@H](CCCCN)NC(=O)[C@H](C)NC(=O)[C@H](CC(C)C)NC(=O)[C@H](CCCCN)NC(=O)[C@H](CCCCN)NC(=O)[C@H](C)NC(=O)[C@@H](N)Cc1ccccc1)C(=O)O [P61] | 32 | 390 | 8 | 93 (≈ 50.1 µM) | 93 | 100 | 140 | 105 | 66 | 170 | 127 | 32 | 2 | 16 | 128 | 16 | 5000 | 1.25 | 1.25 | 624 | P. aeruginosa H374 MIC (P. aeruginosa H374 [3]): 4 µg/mL; S. typhimurium 14028S MIC (S. typhimurium 14028S): 4; E. coli UB1005 MIC (E. coli UB1005): 2; FIC Index (P. aeruginosa H774): 1.25; S. pyogenes MIC (S. pyogenes ATCC19615): 16
FAKLLAKALKKLL-NH2 [P55] | 4 | 20 | 2 | 32 | 32 | 14 | 16 | 16 | 47 | 15 | 7 | 4 | 4 | 4 | 8 | 16 | 5000 | 1.25 | 1.25 | 624 | paerug9027 (MIC) [5]: 5 µg/mL; staph6538 (MIC) [6]: 5 µg/mL; yeast (MIC or MFC) [7]: 25 µg/mL; FIC Index (P. aeruginosa H774): 1.25; S. pyogenes MIC (S. pyogenes ATCC19615): 2
FALALKKALKALKKAL-NH2 [P34] | 16 | 200 | 8 | 40 | 40 | 35 | 53 | 21 | 9 | 62 | 24 | 8 | 8 | 4 | 8 | 16 | 2500 | 1.25 | 0.75 | 624 | paerug9027 (MIC) [5]: 50 µg/mL; staph6538 (MIC) [6]: 5 µg/mL; yeast (MIC or MFC) [7]: 25 µg/mL; FIC Index (P. aeruginosa H774): 1.25; S. pyogenes MIC (S. pyogenes ATCC19615): 4
FAKLLAKLAKKLL-NH2 [P43] | 4 | 20 | 2 | 5 | 5 | 9 | 7 | 9 | 12 | 15 | 6 | 4 | 2 | 2 | 8 | 16 | 5000 | 1.25 | 1.25 | 624 | paerug9027 (MIC) [5]: 100 µg/mL; staph6538 (MIC) [6]: 5 µg/mL; yeast (MIC or MFC) [7]: 25 µg/mL; FIC Index (P. aeruginosa H774): 1.25; S. pyogenes MIC (S. pyogenes ATCC19615): 2
KWKLFKKKTKLFKKFAKKLAKKL-NH2 [P73] | 16 | 90 | 4 | 160 | 160 | 70 | 360 | 150 | 97 | 270 | 115 | 64 | 4 | 16 | > 128 | 8 | 2500 | 0.75 | 0.75 | 624 | paerug9027 (MIC) [5]: 15 µg/mL; staph6538 (MIC) [6]: 50 µg/mL; yeast (MIC or MFC) [7]: 100 µg/mL; FIC Index (P. aeruginosa H774): 1.25; S. pyogenes MIC (S. pyogenes ATCC19615): 16
FAKKLAKKLKKLAKLALAK-NH2 [P41] | 64 | 40 | 4 | 175 | 175 | 120 | 290 | 98 | 140 | 185 | 245 | 32 | 4 | 8 | 64 | 16 | 5000 | 1.25 | 1.25 | 624 | P. aeruginosa H374 MIC (P. aeruginosa H374 [3]): 4 µg/mL; paerug9027 (MIC) [5]: 10 µg/mL; staph6538 (MIC) [6]: 10 µg/mL; S. typhimurium 14028S MIC (S. typhimurium 14028S): 4; E. coli UB1005 MIC (E. coli UB1005): 2; FIC Index (P. aeruginosa H774): 1.25; S. pyogenes MIC (S. pyogenes ATCC19615): 8
KYKKALKKLAKLL-NH2 [P146] | 16 | 180 | 8 | 270 | 270 | 380 | 185 | 110 | 440 | 640 | 93 | 128 | 16 | 8 | > 128 | 4 | 625 | 0.5 | 0.375 | 624 | paerug9027 (MIC) [5]: 10 µg/mL; staph6538 (MIC) [6]: 10 µg/mL; yeast (MIC or MFC) [7]: 50 µg/mL; FIC Index (P. aeruginosa H774): 1.25; S. pyogenes MIC (S. pyogenes ATCC19615): 8
